Results as given in patent US10626115B2, “Fused pyrimidinone and triazinone derivatives containing bridged nitrogen, their process of preparation and their therapeutic uses as antifungal and/or antiparasitic agents” (UNIVERSITE DE NANTES, priority 2015, dated 2020).
≈ marks a conversion by molar mass, not a printed value. Each block holds one molecule with its values, some of them ahead of it.

Key:
[1] = tested on: fluconazole-susceptible C. albicans strain: CAAL93; assay: Antifungal susceptibility, spectrofluorimetric microdilution, CAAL93; type: cell-based; details: Candida albicans, read-out: MIC values CAAL93
Procedure: (§1) Eight strains of Candida spp. with various azoles-susceptibilities were used: • One fluconazole-susceptible C. albicans strain: CAAL93 • Two fluconazole-resistant C. albicans strains: CAAL111 (efflux pump) and CAAL117 (erg11 mutations+voriconazole-resistant) • five fluconazole-resistant Candida non albicans strains: C. krusei (CAKR7, CAKR8), C. glabrata (CAGL2), C. parapsilosis s.l. (CAPA1, CAPA2).
(§2) Antifungal susceptibility was evaluated with a spectrofluorimetric microdilution method.

[2] = tested on: fluconazole-resistant C. krusei (CAKR8); assay: microbe, parasite or virus in culture; type: cell-based; details: Pichia kudriavzevii, read-out: MIC values CAKR8
Procedure: as §1, §2

[3] = tested on: fluconazole-resistant C. glabrata (CAGL2); assay: microbe, parasite or virus in culture; type: cell-based; details: Nakaseomyces glabratus, read-out: MIC values CAGL2
Procedure: as §1, §2

[4] = tested on: fluconazole-resistant C. krusei (CAKR7); assay: microbe, parasite or virus in culture; type: cell-based; details: Pichia kudriavzevii, read-out: MIC values CAKR7
Procedure: as §1, §2

[5] = tested on: fluconazole-resistant C. albicans strain CAAL117 (erg11 mutations+voriconazole-resistant); assay: microbe, parasite or virus in culture; type: cell-based; details: for MIC: Candida albicans, read-out: MIC values CAAL117; for fold more active than voriconazole against CAAL117: compared with voriconazole
Procedure: as §1, §2

[6] = tested on: promastigote stage of a Leishmania mexicana strain; assay: Anti-Trypanosomatidae activity, promastigote stage, spectrofluorimetric microdilution; type: cell-based; details: Leishmania mexicana; promastigote stage; 50% of control growth; read-out: L. mexicana (IC50 μM)
Procedure: Compounds were evaluated on the promastigote stage of a Leishmania mexicana strain using a spectrofluorimetric microdilution method. Inhibitory concentration 50 (IC50) was the concentration that inhibited 50% of the control growth.

[7] = tested on: A. fumigatus itraconazole-resistant strain ASFU77 (erg11 mutation); assay: Antifungal susceptibility, spectrofluorimetric microdilution, ASFU77; type: cell-based, Aspergillus fumigatus; details: Aspergillus fumigatus, read-out: MIC values ASFU77
Procedure: (§3) Eleven strains of A. fumigatus with various itraconazole susceptibility were used: • Five susceptible strains: ASFU7, ASFU35A, ASFU38A, ASFU76 and ASFU78. • Six itraconazole-resistant strains: ASFU77 (erg11 mutation), ASFU13, ASFU17, ASFU19, ASFU20, ASFU23.
(§4) Antifungal susceptibility was evaluated with a spectrofluorimetric microdilution method. MIC was the concentration that was able to inhibit 80% of fluorescence measured in the control wells.

[8] = tested on: A. fumigatus susceptible strain ASFU7; assay: Antifungal susceptibility, spectrofluorimetric microdilution, ASFU7; type: cell-based, Aspergillus fumigatus; details: Aspergillus fumigatus, read-out: MIC values ASFU7
Procedure: as §3, §4

[9] = tested on: A. fumigatus susceptible strain ASFU78; assay: Antifungal susceptibility, spectrofluorimetric microdilution, ASFU78; type: cell-based, Aspergillus fumigatus; details: Aspergillus fumigatus, read-out: MIC values ASFU78
Procedure: as §3, §4

[10] = tested on: A. fumigatus susceptible strain ASFU76; assay: Antifungal susceptibility, spectrofluorimetric microdilution, ASFU76; type: cell-based, Aspergillus fumigatus; details: Aspergillus fumigatus, read-out: MIC values ASFU76
Procedure: as §3, §4

[11] = tested on: A. fumigatus susceptible strain ASFU38A; assay: Antifungal susceptibility, spectrofluorimetric microdilution, ASFU38A; type: cell-based, Aspergillus fumigatus; details: Aspergillus fumigatus, read-out: MIC values ASFU38A
Procedure: as §3, §4

[12] = tested on: fluconazole-resistant C. albicans strain CAAL111 (efflux pump); assay: microbe, parasite or virus in culture; type: cell-based; details: Candida albicans, read-out: MIC values CAAL111
Procedure: as §1, §2

[13] = tested on: A. fumigatus susceptible strain ASFU35A; assay: Antifungal susceptibility, spectrofluorimetric microdilution, ASFU35A; type: cell-based, Aspergillus fumigatus; details: Aspergillus fumigatus, read-out: MIC values ASFU35A
Procedure: as §3, §4

melting point: 175 to 176 °C
SMILES: C[C@@H](n1ccc2nc(-c3nccs3)cn2c1=O)[C@](O)(Cn1cncn1)c1ccc(F)cc1F [Compound 36, 6-[(1R,2R)-2-(2,4-Difluorophenyl)-2-hydroxy-1-methyl-3-(1H-1,2,4-triazol-1-yl)propyl]-2-(thiazol-2-yl)imidazo[1,2-c]pyrimidin-5-one]

SMILES: C[C@@H](n1ncc2cc(-c3ccc(C#N)cc3)cn2c1=O)[C@](O)(Cn1cncn1)c1ccc(F)cc1F [Compound 49, 4-{3-[(1R,2R)-2-(2,4-Difluorophenyl)-2-hydroxy-1-methyl-3-(1,2,4-triazol-1-yl)propyl]-4-oxo-3,4-dihydro-pyrrolo[1,2-d][1,2,4]triazin-7-yl}benzonitrile]
MIC [1]: < 0.048 µg/mL
MIC [2]: 0.101 ± 0.014 µg/mL (≈ 0.207 µM)
MIC [3]: 0.025 ± 0.01 µg/mL (≈ 0.0513 µM)
MIC [4]: 0.058 ± 0.009 µg/mL (≈ 0.119 µM)
MIC [5]: 0.016 ± 0.001 µg/mL (≈ 0.0328 µM)
fold more active than voriconazole against CAAL117 [5]: 100 fold
melting point: 201 to 202 °C

SMILES: Cc1cn2c(=O)n([C@H](C)[C@](O)(Cn3cncn3)c3ccc(F)cc3F)ccc2n1 [Compound 28, 6-[(1R,2R)-2-(2,4-Difluorophenyl)-2-hydroxy-1-methyl-3-(1H-1,2,4-triazol-1-yl)propyl]-2-methylimidazo[1,2-c]pyrimidin-5-one]
IC50 [6]: > 100 µM
melting point: 103 to 104 °C

SMILES: C[C@@H](n1ncc2cc(-c3ccccc3)cn2c1=O)[C@](O)(Cn1cncn1)c1ccc(F)cc1F [Compound 47, 3-[(1R,2R)-2-(2,4-Difluorophenyl)-2-hydroxy-1-methyl-3-(1,2,4-triazol-1-yl)propyl]-7-phenyl-3H-pyrrolo[1,2-d][1,2,4]triazin-4-one]
MIC [7]: 64.8 ± 7.46 µg/mL (≈ 140 µM)
MIC [1]: < 0.001 µg/mL
MIC [8]: 44.1 ± 7.76 µg/mL (≈ 95.3 µM)
MIC [9]: 54.7 ± 12.1 µg/mL (≈ 118 µM)
MIC [10]: 48.4 ± 7.95 µg/mL (≈ 105 µM)
MIC [11]: 58.4 ± 15.7 µg/mL (≈ 126 µM)
MIC [2]: 0.014 µg/mL (≈ 0.0303 µM)
MIC [3]: 0.008 ± 0.005 µg/mL (≈ 0.0173 µM)
MIC [4]: 0.013 ± 0.001 µg/mL (≈ 0.0281 µM)
MIC [12]: 0.016 ± 0.001 µg/mL (≈ 0.0346 µM)
MIC [5]: 0.014 ± 0.002 µg/mL (≈ 0.0303 µM)
fold more active than voriconazole against CAAL117 [5]: 100 fold
melting point: 146 to 147 °C
MIC [13]: 41.3 ± 8.61 µg/mL (≈ 89.4 µM)

melting point: 196 to 197 °C
SMILES: C[C@@H](n1ccc2nc(-c3ccc(C(F)(F)F)cc3)cn2c1=O)[C@](O)(Cn1cncn1)c1ccc(F)cc1F [Compound 33, 6-[(1R,2R)-2-(2,4-Difluorophenyl)-2-hydroxy-1-methyl-3-(1H-1,2,4-triazol-1-yl)propyl]-2-[(4-trifluoromethyl)phenyl]imidazo[1,2-c]pyrimidin-5-one]

melting point: 148 to 149 °C
SMILES: CCOC(=O)c1cn2c(=O)n([C@H](C)[C@](O)(Cn3cncn3)c3ccc(F)cc3F)ccc2n1 [Compound 37, Ethyl-6-[(1R,2R)-2-(2,4-difluorophenyl)-2-hydroxy-1-methyl-3-(1H-1,2,4-triazol-1-yl)propyl]-5-oxo-imidazo[1,2-c]pyrimidine-2-carboxylate]

SMILES: N=C(N)c1ccc(OCCCCCOc2ccc(C(=N)N)cc2)cc1 [Pentamidine, reference compound]
IC50 [6]: 0.34 ± 0.03 µM
